In patent publication US20090105283A1, “3-HYDROQUINAZOLIN-4-ONE DERIVATIVES FOR USE AS STEAROYL CoA DESATURASE INHIBITORS” (priority 2007, published 2009):

The compounds below were run against T1, stearoyl-CoA desaturase (SCD) (Rattus norvegicus, UniProt P07308) (assay: SCD assay with rat liver microsomes ([3H]stearoyl CoA, adapted from Talamo and Bloch)). Conditions: Table 1; rat liver microsomes 0.2 mg/ml assay final, [3H]stearoyl CoA substrate, 30 min preincubation, 45 min reaction, room temperature.
T1 construct: The microsomes were quickly thawed and added to assay buffer so that a concentration of 0.4 mg/ml was achieved; from tissue
T1 sequence (P07308 1-358): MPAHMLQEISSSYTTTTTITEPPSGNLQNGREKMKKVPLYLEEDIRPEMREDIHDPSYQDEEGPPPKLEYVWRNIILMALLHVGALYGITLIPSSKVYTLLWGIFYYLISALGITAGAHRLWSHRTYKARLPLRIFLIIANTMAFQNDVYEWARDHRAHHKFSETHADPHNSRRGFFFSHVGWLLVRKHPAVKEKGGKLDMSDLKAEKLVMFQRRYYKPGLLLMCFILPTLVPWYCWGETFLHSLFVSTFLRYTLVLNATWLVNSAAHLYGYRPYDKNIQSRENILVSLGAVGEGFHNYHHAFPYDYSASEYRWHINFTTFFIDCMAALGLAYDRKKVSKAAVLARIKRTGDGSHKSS
Assay type: biochemical
Source text: Male Spraque Dawley Rats were placed on regimented fasting protocol for one week to stimulate SCD enzymatic activity. 48-hour periods were alternated between feeding and fasting to induce and down-regulate SCD activity with SCD activity being induced via carbohydrate rich diet prior to liver perfusion and collection.
The rats were anesthetized with Isoflurane inhalation anesthetic, the liver perfused with cold phosphate buffered saline (PBS), weighed, and chilled in cold homogenization buffer (250 mM sucrose, 10 mM Tris, 1 mM EDTA, pH 7.6.
The livers were finely minced and placed in homogenization tube. 40 mL of homogenization buffer was added to the homogenization tube and the liver homogenized and centrifuged in a pre-chilled […] for 10 min at 4° C.
Following centrifugation, the supernatant was collected and the pellet removed and discarded. The supernatant was centrifuge at 10,000 G for 35 minutes. Following centrifugation, the supernatant was collect and the pellet discarded. The supernatant was then centrifuged in a pre-chilled 45-Ti rotor at 130,000 G (41,000 RPM) for 90 minutes at 4° C.
The supernatant was then aspirated off and the collected microsomal pellet washed in 25 mL of Glycerol PBS (1×PBS 7.4, 20% Glycerol) and resuspended in 4-5 volumes of Glycerol PBS.
The protein concentration of the microsomal preparation was determined by BCA assay (Pierce) and the microsomes were aliquoted and stored at −80° C.
Biobeads were ground to a smaller size in a mortar and pestle and resuspended in 3.6% TCA. The beads were then filtered through […] mesh.
SCD was determined in the desaturase assay buffer. This assay buffer contained 0.1 M Tris buffer, pH 7.2, 2 mM NADH, 4.8 mM ATP, 0.5 mM CoA, 4.8 mM MgCl2, and 0.1% BSA.
1 μl of each compound of Formula I was added to an assay plate by a low volume (0.5-10 μL) multichannel pipette. A DMSO control was also prepared. The microsomes were quickly thawed and added to assay buffer so that a concentration of 0.4 mg/ml was achieved (0.2 mg/ml assay final). 50 μl of the microsome suspension in assay buffer was then added into each well in the compound assay plate, the plate was covered, and the microsomes preincubated with the compounds for 30 minutes on the orbital shaker, 50-75 rpm, at room temperature.
The reaction mixtures were then incubated for 45 minutes on the orbital shaker at 50-75 rpm at room temperature.
The reaction was terminated by the addition of 10 μl of 21% trichloroacetic acid (TCA) to the reaction mixture followed incubation on the orbital shaker for 30 minutes at 50-75 rpm at room temperature followed by centrifugation for 5 minutes at 3700 rpm.
50 μl of a 6% Bio-Bead suspension in H2O was added to the reaction mixture and the assay plate was sealed. The Bio-Bead mixture was incubated on the orbital shaker for 1 hour, 100-150 rpm at room temperature, and then the mixture was centrifuged at 2000 g for 5 minutes to pellet the Bio-Beads.
25 μl of the supernatant was harvested from each well and transferred to a detection plate. 100 μl of OptiPhase SuperMix scinitillation cocktail (containing sufficient NaOH to neutralize the TCA) was added and the solutions mixed by vigorous shaking (300-400 rpm) for 5 minutes at room temperature.

Structure (SMILES) | IC50
O=C(CSc1ccncc1)Nc1ccc2ncn(Cc3ccc(Cl)cc3)c(=O)c2c1 [XXXVII, N-{3-[(4-chlorophenyl)methyl]-4-oxo(3-hydroquinazolin-6-yl)}-2-(4-pyridylthio)acetamide] | 7300 nM
O=C(CSc1ccncc1)Nc1ccc2ncn(Cc3ccc(Cl)c(Cl)c3)c(=O)c2c1 [LIV, N-{3-[(3,4-dichlorophenyl)methyl]-4-oxo(3-hydroquinazolin-6-yl)}-2-(4-pyridylthio)acetamide] | 2560 nM
O=C(CSc1ccc(Cl)cc1)Nc1ccc2ncn(Cc3ccc(Cl)c(Cl)c3)c(=O)c2c1 [LVI, N-{3-[(3,4-dichlorophenyl)methyl]-4-oxo(3-hydroquinazolin-6-yl)}-2-(4-chlorophenylthio)acetamide] | 2810 nM
O=C(CO)Nc1ccc2c(=O)n(Cc3cccc(Cl)c3)cnc2c1 [LXVIII, N-{3-[(3-chlorophenyl)methyl]-4-oxo(3-hydroquinazolin-7-yl)}-2-hydroxyacetamide] | 2690 nM
CC(=O)OCC(=O)Nc1ccc2c(=O)n(Cc3cccc(F)c3)cnc2c1 [LXXII, (N-{3-[(3-fluorophenyl)methyl]-4-oxo-3-hydroquinazolin-7-yl}carbamoyl)methyl acetate] | 290 nM
COCCNC(=O)Nc1ccc2ncn(Cc3ccc(Cl)c(Cl)c3)c(=O)c2c1 [XCIII, N-{3-[(3,4-dichlorophenyl)methyl]-4-oxo(3-hydroquinazolin-6-yl)}[(2-methoxyethyl)amino]carboxamide] | 6200 nM
COCCOCCOC(=O)Nc1ccc2ncn(Cc3ccc(Cl)c(Cl)c3)c(=O)c2c1 [XCII, N-{3-[(3,4-dichlorophenyl)methyl]-4-oxo(3-hydroquinazolin-6-yl)}[2-(2-methoxyethoxy)ethoxy]carboxamide] | 11700 nM
O=C(CO)Nc1ccc2ncn(Cc3cccc(C(F)(F)F)c3)c(=O)c2c1 [XCV, 2-hydroxy-N-(4-oxo-3-{[3-(trifluoromethyl)phenyl]methyl}(3-hydroquinazolin-6-yl))acetamide] | 1380 nM

Continued, values first:

IC50 | Structure (SMILES)
2100 nM | CC(Oc1ccccc1Cl)C(=O)Nc1ccc2ncn(Cc3ccc(Cl)c(Cl)c3)c(=O)c2c1 (centres unmarked) [XXXIV, N-{3-[(3,4-dichlorophenyl)methyl]-4-oxo(3-hydroquinazolin-6-yl)}-2-(2-chlorophenoxy)propanamide]
670 nM | N#Cc1cccc(COC(=O)Nc2ccc3ncn(Cc4ccc(Cl)c(Cl)c4)c(=O)c3c2)c1 [LXXX, N-{3-[(3,4-dichlorophenyl)methyl]-4-oxo(3-hydroquinazolin-6-yl)}[(3-cyanophenyl)methoxy]carboxamide]
840 nM | O=C(Nc1ccc2c(=O)n(Cc3cccc(F)c3)cnc2c1)OCc1ccccc1 [LXIX, N-{3-[(3-fluorophenyl)methyl]-4-oxo(3-hydroquinazolin-7-yl)}(phenylmethoxy)carboxamide]
190 nM | O=C(Nc1ccc2ncn(Cc3ccc(Cl)cc3)c(=O)c2c1)OCc1ccccc1 [VIII, N-{3-[(4-chlorophenyl)methyl]-4-oxo(3-hydroquinazolin-6-yl)}(phenylmethoxy)carboxamide]
1440 nM | COc1ccccc1OCC(=O)Nc1ccc2c(=O)n(Cc3ccc(Cl)c(Cl)c3)cnc2c1 [L, N-{3-[(3,4-dichlorophenyl)methyl]-4-oxo(3-hydroquinazolin-7-yl)}-2-(2-methoxyphenoxy)acetamide]
1000 nM | O=C(Nc1ccc2ncn(Cc3ccc(Cl)c(Cl)c3)c(=O)c2c1)OCc1ccncc1 [LXXIX, N-{3-[(3,4-dichlorophenyl)methyl]-4-oxo(3-hydroquinazolin-6-yl)}(4-pyridylmethoxy)carboxamide]
290 nM | O=C(Nc1ccc2c(=O)n(Cc3ccc(F)c(Cl)c3)cnc2c1)OCc1ccccc1 [LXXIII, N-{3-[(3-chloro-4-fluorophenyl)methyl]-4-oxo(3-hydroquinazolin-7-yl)}(phenylmethoxy)carboxamide]

Same assay, conditions: Table 2 (Example 21, procedures of Example 20); rat liver microsomes, [3H]stearoyl CoA substrate

Structure (SMILES) | IC50
O=C(CO)Nc1ccc2ncn(CCCNS(=O)(=O)c3cc(Cl)ccc3Cl)c(=O)c2c1 [compound 72, N-(3-(3-(2,5-dichlorophenylsulfonamido)propyl)-4-oxo-3,4-dihydroquinazolin-6-yl)-2-hydroxyacetamide] | 21000 nM
O=C(NCc1ccc(F)cc1)c1ccc2c(=O)n(Cc3ccc(Cl)cc3)cnc2c1 [compound 90, 3-(4-chlorobenzyl)-N-(4-fluorobenzyl)-4-oxo-3,4-dihydroquinazoline-7-carboxamide] | 890 nM
CCC(c1ccc(Cl)c(Cl)c1)n1cnc2ccc(NC(=O)CO)cc2c1=O (centres unmarked) [compound 26, N-(3-(1-(3,4-dichlorophenyl)propyl)-4-oxo-3,4-dihydroquinazolin-6-yl)-2-hydroxyacetamide] | 3300 nM
O=C(CO)Nc1ccc2ncn(Cc3ccc(F)c(F)c3)c(=O)c2c1 [compound 2, N-(3-(3,4-difluorobenzyl)-4-oxo-3,4-dihydroquinazolin-6-yl)-2-hydroxyacetamide] | 2400 nM
CC(=O)Nc1ccc2ncn(Cc3ccc(Cl)c(Cl)c3)c(=O)c2c1 [compound 17, N-(3-(3,4-dichlorobenzyl)-4-oxo-3,4-dihydroquinazolin-6-yl)acetamide] | 3900 nM
O=C(NCCO)c1ccc2c(=O)n(Cc3ccc(Cl)c(Cl)c3)cnc2c1 [compound 84, 3-(3,4-dichlorobenzyl)-N-(2-hydroxyethyl)-4-oxo-3,4-dihydroquinazoline-7-carboxamide] | 630 nM

The remaining lines, values ahead:

IC50 | Structure (SMILES)
8000 nM | O=C(COc1ccccc1)Nc1ccc2ncn(Cc3ccc(Cl)cc3)c(=O)c2c1 [compound 5, N-(3-(4-chlorobenzyl)-4-oxo-3,4-dihydroquinazolin-6-yl)-2-phenoxyacetamide]
1700 nM | O=C(NCCOc1ccccc1)c1ccc2c(=O)n(Cc3ccc(Cl)c(Cl)c3)cnc2c1 [compound 87, 3-(3,4-dichlorobenzyl)-4-oxo-N-(2-phenoxyethyl)-3,4-dihydroquinazoline-7-carboxamide]
450 nM | O=C(Nc1ccc2c(=O)n(CCCOc3cc(Cl)ccc3Cl)cnc2c1)OCc1ccccc1 [compound 50, benzyl 3-(3-(2,5-dichlorophenoxy)propyl)-4-oxo-3,4-dihydroquinazolin-7-ylcarbamate]
180 nM | O=C(Nc1ccc2ncn(CCOc3ccccc3Cl)c(=O)c2c1)OCc1ccccc1 [compound 57, benzyl 3-(2-(2-chlorophenoxy)ethyl)-4-oxo-3,4-dihydroquinazolin-6-ylcarbamate]
150 nM | O=C(Nc1ccc2ncn(CCCCOc3cc(Cl)ccc3Cl)c(=O)c2c1)OCc1ccccc1 [compound 54, benzyl 3-(4-(2,5-dichlorophenoxy)butyl)-4-oxo-3,4-dihydroquinazolin-6-ylcarbamate]
11000 nM | O=C(CO)Nc1ccc2c(=O)n(CCCOc3ccccc3F)cnc2c1 [compound 48, N-(3-(3-(2-fluorophenoxy)propyl)-4-oxo-3,4-dihydroquinazolin-7-yl)-2-hydroxyacetamide]
2800 nM | O=C(CO)Nc1ccc2c(=O)n(Cc3ccc4ccccc4c3)cnc2c1 [compound 33, 2-hydroxy-N-(3-(naphthalen-2-ylmethyl)-4-oxo-3,4-dihydroquinazolin-7-yl)acetamide]
380 nM | O=C(Nc1ccc2ncn(C/C=C/COc3cc(Cl)ccc3Cl)c(=O)c2c1)OCc1ccccc1 [compound 103, (E)-benzyl 3-(4-(2,5-dichlorophenoxy)but-2-enyl)-4-oxo-3,4-dihydroquinazolin-6-ylcarbamate]
